Target: CXCR7 (Homo sapiens (Human), UniProt P25106)
Assay: PathHunter CHO-K1 CXCR7 b-arrestin assay (agonistic activity)
Type: cell-based
Conditions: PathHunter CHO-K1 CXCR7 b-arrestin cell line
Outline: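 CHO-K1 cells co-expressing ProLink-tagged CXCR7 and EA-fused β-arrestin 2 (enzyme fragment complementation); compounds added in HBSS/20 mM HEPES/0.2% BSA after 3–4 h in OPTIMEM, 90 min at 37 °C. Chemiluminescent β-gal signal read after 1 h detection at room temperature; EC50 reported as geometric mean of several measurements.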

Sequence of CXCR7 (P25106 whole entry): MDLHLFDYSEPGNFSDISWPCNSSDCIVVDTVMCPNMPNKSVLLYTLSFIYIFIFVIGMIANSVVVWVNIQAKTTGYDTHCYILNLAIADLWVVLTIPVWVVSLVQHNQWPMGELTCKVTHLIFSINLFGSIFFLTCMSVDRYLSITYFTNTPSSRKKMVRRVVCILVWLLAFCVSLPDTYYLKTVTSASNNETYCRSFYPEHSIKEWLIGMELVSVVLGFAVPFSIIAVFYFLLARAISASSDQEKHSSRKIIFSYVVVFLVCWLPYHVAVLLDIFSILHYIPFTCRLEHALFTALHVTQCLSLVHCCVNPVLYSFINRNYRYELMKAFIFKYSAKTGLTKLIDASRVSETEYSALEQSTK
Sequence of CXCR7 (P32121 whole entry partner): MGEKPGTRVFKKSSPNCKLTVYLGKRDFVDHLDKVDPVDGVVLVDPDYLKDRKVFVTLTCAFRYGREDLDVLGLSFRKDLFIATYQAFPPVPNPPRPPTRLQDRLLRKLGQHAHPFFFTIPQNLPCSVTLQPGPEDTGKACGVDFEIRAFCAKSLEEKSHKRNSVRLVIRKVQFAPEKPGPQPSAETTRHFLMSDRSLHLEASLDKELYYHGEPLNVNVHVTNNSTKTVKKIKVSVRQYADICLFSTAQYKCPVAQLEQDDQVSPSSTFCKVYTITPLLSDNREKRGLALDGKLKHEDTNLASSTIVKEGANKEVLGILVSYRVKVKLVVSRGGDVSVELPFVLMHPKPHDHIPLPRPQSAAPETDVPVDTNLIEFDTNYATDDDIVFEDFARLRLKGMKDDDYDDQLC

Structure (SMILES) | EC50 [nM]
CC(c1cccc(NC(=O)c2ccc(Cl)cc2)c1)N1CCC(C(=O)NC2CCCCC2)CC1 (stereo not drawn) [Example 1.164] | 8
CC(c1cccc(NC(=O)c2ccccc2)c1)N1CCC(C(=O)NC2CCCCC2)CC1 (stereo not drawn) [Example 1.165] | 23
CC(c1cccc(NC(=O)c2ccc(F)cc2)c1)N1CCC(C(=O)NC2CCCCC2)CC1 (stereo not drawn) [Example 1.166] | 10
COc1ccc(C(=O)Nc2cccc(C(C)N3CCC(C(=O)NC4CCCCC4)CC3)c2)cc1 (stereo not drawn) [Example 1.167] | 25
O=C(Nc1cccc(CN2CCC(C(=O)NC3CC3)CC2)c1)c1ccc(F)cc1 [Example 1.199] | 3
O=C(Nc1cccc(CN2CCC(C(=O)NC3CC3)CC2)c1)c1cc(Cl)ccn1 [Example 1.200] | 16
Cc1cccc(C(=O)Nc2cccc(CN3CCC(C(=O)NC4CC4)CC3)c2)n1 [Example 1.201] | 3
Cc1cc(C(=O)Nc2cccc(CN3CCC(C(=O)NC4CC4)CC3)c2)ccn1 [Example 1.203] | 56
O=C(Nc1cccc(CN2CCC(C(=O)NC3CC3)CC2)c1)c1cncc(F)c1 [Example 1.204] | 47
O=C(Nc1cccc(CN2CCC(C(=O)NC3CC3)CC2)c1)c1ccc(F)cn1 [Example 1.205] | 2
O=C(Nc1cccc(CN2CCC(C(=O)NC3CCCC3)CC2)c1)c1ccc(F)cc1 [Example 1.206] | 0.9
O=C(Nc1cccc(CN2CCC(C(=O)NC3CCCC3)CC2)c1)c1ccc(F)cn1 [Example 1.207] | 0.8
O=C(Nc1cccc(CN2CCC(C(=O)NC3CCCC3)CC2)c1)c1cccc(C(F)(F)F)n1 [Example 1.208] | 0.6
O=C(Nc1cccc(CN2CCC(C(=O)NC3CCCC3)CC2)c1)c1cncc(Cl)c1 [Example 1.209] | 1
O=C(Nc1cccc(CN2CCC(C(=O)NC3CCCC3)CC2)c1)c1ccc(C(F)(F)F)cn1 [Example 1.210] | 0.6
O=C(Nc1cccc(CN2CCC(C(=O)NC3CCCC3)CC2)c1)c1cnc2ccccc2c1 [Example 1.211] | 3
O=C(Nc1cccc(CN2CCC(C(=O)NC3CCCC3)CC2)c1)c1cncc(C(F)(F)F)c1 [Example 1.212] | 2
O=C(Nc1cccc(CN2CCC(C(=O)NC3CCCC3)CC2)c1)c1ccc2ncccc2c1 [Example 1.213] | 3
O=C(Nc1cccc(CN2CCC(C(=O)NC3CCCC3)CC2)c1)c1cccnc1C(F)(F)F [Example 1.214] | 109
O=C(Nc1cccc(CN2CCC(C(=O)NC3CCCC3)CC2)c1)c1cncc(F)c1 [Example 1.215] | 2
O=C(Nc1cccc(CN2CCC(C(=O)NC3CCCC3)CC2)c1)c1cc(C(F)(F)F)ccn1 [Example 1.216] | 7
O=C(Nc1ccc(Cl)c(CN2CCC(C(=O)NC3CCCC3)CC2)c1)c1ccccc1 [Example 1.217] | 0.4
O=C(Nc1ccc(Cl)c(CN2CCC(C(=O)NC3CCCC3)CC2)c1)c1cccc(C(F)(F)F)n1 [Example 1.218] | 2
O=C(Nc1ccc(Cl)c(CN2CCC(C(=O)NC3CCCC3)CC2)c1)c1ccc(F)cc1 [Example 1.219] | 0.9
O=C(Nc1ccc(Cl)c(CN2CCC(C(=O)NC3CCCC3)CC2)c1)c1ccc(C(F)(F)F)cn1 [Example 1.220] | 1

Structure (SMILES) | EC50 [nM]
O=C(Nc1ccc(Cl)c(CN2CCC(C(=O)NC3CCCC3)CC2)c1)c1ccc2ncccc2c1 [Example 1.221] | 1
O=C(Nc1ccc(Cl)c(CN2CCC(C(=O)NC3CCCC3)CC2)c1)c1cnc2ccccc2c1 [Example 1.222] | 3
CC(C)(C)NC(=O)C1CCN(Cc2cccc(NC(=O)c3ccc(F)cc3)c2)CC1 [Example 1.223] | 0.5
O=C(Nc1ccc(Cl)c(CN2CCC(C(=O)NC3CCCC3)CC2)c1)c1ccc(F)cn1 [Example 1.224] | 0.4
O=C(Nc1ccc(Cl)c(CN2CCC(C(=O)NC3CCCC3)CC2)c1)c1cncc(C(F)(F)F)c1 [Example 1.225] | 0.8
Cc1cncc(C(=O)Nc2ccc(Cl)c(CN3CCC(C(=O)NC4CCCC4)CC3)c2)c1 [Example 1.226] | 2
CC(C)(C)NC(=O)C1CCN(Cc2cccc(NC(=O)c3cccc(C(F)(F)F)n3)c2)CC1 [Example 1.228] | 1
CC(C)(C)NC(=O)C1CCN(Cc2cccc(NC(=O)c3ccc(C(F)(F)F)cn3)c2)CC1 [Example 1.229] | 0.5
CC(C)(C)NC(=O)C1CCN(Cc2cccc(NC(=O)c3cncc(C(F)(F)F)c3)c2)CC1 [Example 1.230] | 1
CC(C)(C)NC(=O)C1CCN(Cc2cccc(NC(=O)c3cccnc3C(F)(F)F)c2)CC1 [Example 1.231] | 99
CC(C)(C)NC(=O)C1CCN(Cc2cccc(NC(=O)c3cnc4ccccc4n3)c2)CC1 [Example 1.232] | 3
CC(C)(C)NC(=O)C1CCN(Cc2cccc(NC(=O)c3cnc4ccccc4c3)c2)CC1 [Example 1.233] | 2
CC(C)(C)NC(=O)C1CCN(Cc2cccc(NC(=O)c3ccc4cnccc4n3)c2)CC1 [Example 1.234] | 2
CC(C)(C)NC(=O)C1CCN(Cc2cccc(NC(=O)c3ccc4ccccc4n3)c2)CC1 [Example 1.235] | 0.9
CC(C)(C)NC(=O)C1CCN(Cc2cccc(NC(=O)c3cnc4cc(Cl)ccc4c3)c2)CC1 [Example 1.236] | 5
CC(C)(C)NC(=O)C1CCN(Cc2cccc(NC(=O)c3cccc(C(F)(F)F)c3)c2)CC1 [Example 1.237] | 4
CC(C)(C)NC(=O)C1CCN(Cc2cccc(NC(=O)c3ccc(C(F)(F)F)cc3)c2)CC1 [Example 1.238] | 4
CC(C)(C)NC(=O)C1CCN(Cc2cccc(NC(=O)c3ccccc3C(F)(F)F)c2)CC1 [Example 1.239] | 17
CC(C)(C)NC(=O)C1CCN(Cc2cccc(NC(=O)c3cncc(C4CC4)c3)c2)CC1 [Example 1.240] | 3
CCc1cncc(C(=O)Nc2cccc(CN3CCC(C(=O)NC(C)(C)C)CC3)c2)c1 [Example 1.241] | 4
CC(C)(C)NC(=O)C1CCN(Cc2cccc(NC(=O)c3cc(C(F)(F)F)ccn3)c2)CC1 [Example 1.242] | 6
CC(C)(C)NC(=O)C1CCN(Cc2cccc(NC(=O)Cc3ccc(Cl)cc3Cl)c2)CC1 [Example 1.244] | 5
CC(C)(C)NC(=O)C1CCN(Cc2cccc(NC(=O)Cc3c(Cl)cccc3Cl)c2)CC1 [Example 1.245] | 1
CC(C)(C)NC(=O)C1CCN(Cc2cccc(NC(=O)Cc3cccc(Cl)c3Cl)c2)CC1 [Example 1.246] | 3
CC(C)(C)NC(=O)C1CCN(Cc2cccc(NC(=O)Cc3c(F)cccc3Cl)c2)CC1 [Example 1.247] | 2

Structure (SMILES) | EC50 [nM]
CC(C)(C)NC(=O)C1CCN(Cc2cccc(NC(=O)Cc3ccc(F)cc3Cl)c2)CC1 [Example 1.248] | 2
CC(C)(C)NC(=O)C1CCN(Cc2cccc(NC(=O)Cc3cccc(C(F)(F)F)c3Cl)c2)CC1 [Example 1.249] | 2
CC(C)(C)NC(=O)C1CCN(Cc2cccc(NC(=O)Cc3c(Cl)ccc(C(F)(F)F)c3Cl)c2)CC1 [Example 1.250] | 3
CC(C)(C)NC(=O)C1CCN(Cc2cccc(NC(=O)Cc3c(C(F)(F)F)ccc(Cl)c3Cl)c2)CC1 [Example 1.251] | 3
CC(C)(C)NC(=O)C1CCN(Cc2cccc(NC(=O)Cc3cc(F)c(Cl)cc3Cl)c2)CC1 [Example 1.252] | 4
CC(C)(C)NC(=O)C1CCN(Cc2cccc(NC(=O)Cc3c(F)ccc(Cl)c3Cl)c2)CC1 [Example 1.253] | 4
CC(C)(C)NC(=O)C1CCN(Cc2cccc(NC(=O)Cc3c(F)ccc(F)c3Cl)c2)CC1 [Example 1.254] | 2
CC(C)(C)NC(=O)C1CCN(Cc2cccc(NC(=O)CC3CCOCC3)c2)CC1 [Example 1.255] | 137
CC(C)(C)NC(=O)C1CCN(Cc2cccc(NC(=O)Cc3ccccc3Cl)c2)CC1 [Example 1.258] | 1
CC(C)(C)NC(=O)C1CCN(Cc2cccc(NC(=O)Cc3ccccc3)c2)CC1 [Example 1.259] | 4
CC(C)(C)NC(=O)C1CCN(Cc2cccc(NC(=O)C3C(C)(C)C3(C)C)c2)CC1 [Example 1.260] | 0.9
Cc1nc(CC(=O)Nc2cccc(CN3CCC(C(=O)NC(C)(C)C)CC3)c2)c(C)s1 [Example 1.261] | 2
Cc1nc(C)c(CC(=O)Nc2cccc(CN3CCC(C(=O)NC(C)(C)C)CC3)c2)s1 [Example 1.262] | 120
CC(C)(C)NC(=O)C1CCN(Cc2cccc(NC(=O)Cc3cnccn3)c2)CC1 [Example 1.263] | 143
CC(C)(C)NC(=O)C1CCN(Cc2cccc(NC(=O)Cc3ncccn3)c2)CC1 [Example 1.264] | 90
CC(C)(C)NC(=O)C1CCN(Cc2cccc(NC(=O)C3(c4ccc(Cl)cc4Cl)CC3)c2)CC1 [Example 1.268] | 2
CC(C)(C)NC(=O)C1CCN(Cc2cccc(NC(=O)CC3Cc4ccccc4C3)c2)CC1 [Example 1.272] | 2
CC(C)CN(C)C(=O)C1CCN(Cc2cccc(NC(=O)c3ccc(F)cc3)c2)CC1 [Example 1.273] | 2
CC(C)CN(C)C(=O)C1CCN(Cc2cccc(NC(=O)c3cccc(C(F)(F)F)n3)c2)CC1 [Example 1.274] | 9
CC(C)CN(C)C(=O)C1CCN(Cc2cccc(NC(=O)c3ccc(C(F)(F)F)cn3)c2)CC1 [Example 1.275] | 3
CC(C)CN(C)C(=O)C1CCN(Cc2cccc(NC(=O)c3cncc(C(F)(F)F)c3)c2)CC1 [Example 1.276] | 6
CC(C)CN(C)C(=O)C1CCN(Cc2cccc(NC(=O)c3cncc(F)c3)c2)CC1 [Example 1.277] | 18
CC(C)CN(C)C(=O)C1CCN(Cc2cccc(NC(=O)c3cncc(Cl)c3)c2)CC1 [Example 1.278] | 6
CC(C)(C)NC(=O)C1CCN(Cc2cc(Br)cc(NC(=O)c3cccc(C(F)(F)F)n3)c2)CC1 [Example 1.279] | 420
COc1cc(CN2CCC(C(=O)NC(C)(C)C)CC2)cc(NC(=O)c2ccc(F)cc2)c1 [Example 1.280] | 409
